Measurements from PubChem BioAssay (NCI).
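How tested: cells in 96-well plates exposed to compound for 48 hours at five concentrations. Abbreviation: GI50, concentration required for 50% inhibition of growth. TGI marks complete inhibition of growth.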

Columns and labels:
Test in all cases: NCI tumour cell line growth inhibition, 48 h
UACC-62 melanoma = test system: UACC-62 melanoma
OVCAR-8 ovarian = test system: OVCAR-8 ovarian
U251 CNS = test system: U251 CNS
SF-539 CNS = test system: SF-539 CNS
DU-145 prostate = test system: DU-145 prostate
ACHN renal = test system: ACHN renal
OVCAR-5 ovarian = test system: OVCAR-5 ovarian
PC-3 prostate = test system: PC-3 prostate
NCI-H522 lung = test system: NCI-H522 lung
SK-MEL-5 melanoma = test system: SK-MEL-5 melanoma
SK-MEL-28 melanoma = test system: SK-MEL-28 melanoma
A549 NSCLC = test system: A549 NSCLC
HCC-2998 colon = test system: HCC-2998 colon
OVCAR-4 ovarian = test system: OVCAR-4 ovarian
MALME-3M melanoma = test system: MALME-3M melanoma
SN12C renal = test system: SN12C renal
MOLT-4 leukemia = test system: MOLT-4 leukemia
HS 578T breast = test system: HS 578T breast
HOP-92 NSCLC = test system: HOP-92 NSCLC
SF-295 CNS = test system: SF-295 CNS
UO-31 renal = test system: UO-31 renal
IGROV1 ovarian = test system: IGROV1 ovarian
MDA-MB-435 = test system: MDA-MB-435
HOP-62 NSCLC = test system: HOP-62 NSCLC
K-562 leukemia = test system: K-562 leukemia
NCI-H226 lung = test system: NCI-H226 lung
MDA-MB-231 breast = test system: MDA-MB-231 breast
SF-268 CNS = test system: SF-268 CNS
HCT-15 colon = test system: HCT-15 colon
OVCAR-3 ovarian = test system: OVCAR-3 ovarian
BT-549 breast = test system: BT-549 breast
SNB-19 CNS = test system: SNB-19 CNS
HCT-116 colon = test system: HCT-116 colon
HT29 colon = test system: HT29 colon
SW-620 colon = test system: SW-620 colon
KM12 colon = test system: KM12 colon
CAKI-1 renal = test system: CAKI-1 renal
NCI/ADR-RES ovarian = test system: NCI/ADR-RES ovarian
NCI-H460 lung = test system: NCI-H460 lung
LOX IMVI melanoma = test system: LOX IMVI melanoma
COLO 205 colon = test system: COLO 205 colon
NCI-H23 lung = test system: NCI-H23 lung
786-0 renal = test system: 786-0 renal
SK-MEL-2 melanoma = test system: SK-MEL-2 melanoma
CCRF-CEM leukemia = test system: CCRF-CEM leukemia
UACC-257 melanoma = test system: UACC-257 melanoma
A498 renal = test system: A498 renal
RPMI-8226 leukemia = test system: RPMI-8226 leukemia
EKVX NSCLC = test system: EKVX NSCLC
MCF7 breast = test system: MCF7 breast
SK-OV-3 ovarian = test system: SK-OV-3 ovarian
TK-10 renal = test system: TK-10 renal
RXF 393 renal = test system: RXF 393 renal
T-47D breast = test system: T-47D breast
M14 melanoma = test system: M14 melanoma
SR leukemia = test system: SR leukemia
HL-60(TB) leukemia = test system: HL-60(TB) leukemia

O=C1OCC2=C1C(c1cccc(C(F)(F)F)c1)c1cc3c(cc1N2CCO)OCO3 (configuration not stated)
GI50 (UACC-62 melanoma): 1.14 µM
TGI (UACC-62 melanoma): > 50 µM
GI50 (OVCAR-8 ovarian): 2.51 µM
TGI (OVCAR-8 ovarian): > 50 µM
GI50 (U251 CNS): 1.82 µM
TGI (U251 CNS): > 50 µM
GI50 (SF-539 CNS): 0.884 µM
TGI (SF-539 CNS): 2.73 µM
GI50 (DU-145 prostate): 1.72 µM
TGI (DU-145 prostate): > 50 µM
GI50 (ACHN renal): 3.09 µM
TGI (ACHN renal): > 50 µM
GI50 (OVCAR-5 ovarian): 2.19 µM
TGI (OVCAR-5 ovarian): > 50 µM
GI50 (PC-3 prostate): 0.926 µM
TGI (PC-3 prostate): > 50 µM
GI50 (NCI-H522 lung): 0.573 µM
TGI (NCI-H522 lung): 2.16 µM
GI50 (SK-MEL-5 melanoma): 0.937 µM
TGI (SK-MEL-5 melanoma): 15.9 µM
GI50 (SK-MEL-28 melanoma): 4.54 µM
TGI (SK-MEL-28 melanoma): > 50 µM
GI50 (A549 NSCLC): 2.9 µM
TGI (A549 NSCLC): > 50 µM
GI50 (HCC-2998 colon): 1.55 µM
TGI (HCC-2998 colon): 17 µM
GI50 (OVCAR-4 ovarian): 2.49 µM
TGI (OVCAR-4 ovarian): > 50 µM
GI50 (MALME-3M melanoma): 2.67 µM
TGI (MALME-3M melanoma): > 50 µM
GI50 (SN12C renal): 2.9 µM
TGI (SN12C renal): > 50 µM
GI50 (MOLT-4 leukemia): 1.02 µM
TGI (MOLT-4 leukemia): > 50 µM
GI50 (HS 578T breast): 3.01 µM
TGI (HS 578T breast): > 50 µM
GI50 (HOP-92 NSCLC): 2.03 µM
TGI (HOP-92 NSCLC): > 50 µM
GI50 (SF-295 CNS): 0.801 µM
TGI (SF-295 CNS): > 50 µM
GI50 (UO-31 renal): 2.19 µM
TGI (UO-31 renal): > 50 µM
GI50 (IGROV1 ovarian): 1.61 µM
TGI (IGROV1 ovarian): > 50 µM
GI50 (MDA-MB-435): 0.161 µM
TGI (MDA-MB-435): 0.641 µM
GI50 (HOP-62 NSCLC): 1.97 µM
TGI (HOP-62 NSCLC): > 50 µM
GI50 (K-562 leukemia): 0.273 µM
TGI (K-562 leukemia): > 50 µM
GI50 (NCI-H226 lung): 21.7 µM
TGI (NCI-H226 lung): > 50 µM
GI50 (MDA-MB-231 breast): 1.77 µM
TGI (MDA-MB-231 breast): > 50 µM
GI50 (SF-268 CNS): 4.78 µM
TGI (SF-268 CNS): > 50 µM
GI50 (HCT-15 colon): 0.511 µM
TGI (HCT-15 colon): > 50 µM
GI50 (OVCAR-3 ovarian): 1.32 µM
TGI (OVCAR-3 ovarian): > 50 µM
GI50 (BT-549 breast): 0.919 µM
TGI (BT-549 breast): 27.3 µM
GI50 (SNB-19 CNS): 1.62 µM
TGI (SNB-19 CNS): > 50 µM
GI50 (HCT-116 colon): 0.408 µM
TGI (HCT-116 colon): > 50 µM
GI50 (HT29 colon): 1.31 µM
TGI (HT29 colon): 8.4 µM
GI50 (SW-620 colon): 0.84 µM
TGI (SW-620 colon): > 50 µM
GI50 (KM12 colon): 1.88 µM
TGI (KM12 colon): > 50 µM
GI50 (CAKI-1 renal): 1.76 µM
TGI (CAKI-1 renal): > 50 µM
GI50 (NCI/ADR-RES ovarian): 1.34 µM
TGI (NCI/ADR-RES ovarian): > 50 µM
GI50 (NCI-H460 lung): 1.54 µM
TGI (NCI-H460 lung): > 50 µM
GI50 (LOX IMVI melanoma): 2.02 µM
TGI (LOX IMVI melanoma): > 50 µM
GI50 (COLO 205 colon): 1.18 µM
TGI (COLO 205 colon): 3.26 µM
GI50 (NCI-H23 lung): 2.72 µM
TGI (NCI-H23 lung): > 50 µM
GI50 (786-0 renal): 1.19 µM
TGI (786-0 renal): > 50 µM
GI50 (SK-MEL-2 melanoma): 1.43 µM
TGI (SK-MEL-2 melanoma): > 50 µM
GI50 (CCRF-CEM leukemia): 0.955 µM
TGI (CCRF-CEM leukemia): > 50 µM
GI50 (UACC-257 melanoma): > 50 µM
TGI (UACC-257 melanoma): > 50 µM
GI50 (A498 renal): 1.08 µM
TGI (A498 renal): 10.9 µM
GI50 (RPMI-8226 leukemia): 1.79 µM
TGI (RPMI-8226 leukemia): > 50 µM
GI50 (EKVX NSCLC): 1.75 µM
TGI (EKVX NSCLC): > 50 µM
GI50 (MCF7 breast): 0.415 µM
TGI (MCF7 breast): > 50 µM
GI50 (SK-OV-3 ovarian): 2.37 µM
TGI (SK-OV-3 ovarian): > 50 µM
GI50 (TK-10 renal): 10.1 µM
TGI (TK-10 renal): > 50 µM

CC1(C)C(=O)N(O)C(C)(C)N1N=O
TGI (OVCAR-8 ovarian): > 10 µM
TGI (U251 CNS): > 10 µM
TGI (DU-145 prostate): > 10 µM
TGI (ACHN renal): > 10 µM
TGI (OVCAR-5 ovarian): > 10 µM
TGI (PC-3 prostate): > 10 µM
TGI (NCI-H522 lung): > 10 µM
TGI (RXF 393 renal): > 10 µM
TGI (A549 NSCLC): > 10 µM
TGI (HCC-2998 colon): > 10 µM
TGI (OVCAR-4 ovarian): > 10 µM
TGI (MALME-3M melanoma): > 10 µM
TGI (SN12C renal): > 10 µM
TGI (MOLT-4 leukemia): > 10 µM
TGI (HOP-92 NSCLC): > 10 µM
TGI (SF-295 CNS): > 10 µM
TGI (UO-31 renal): > 10 µM
TGI (T-47D breast): > 10 µM
TGI (MDA-MB-435): > 10 µM
TGI (HOP-62 NSCLC): > 10 µM
TGI (K-562 leukemia): > 10 µM
TGI (NCI-H226 lung): > 10 µM
TGI (MDA-MB-231 breast): > 10 µM
TGI (SF-268 CNS): > 10 µM
TGI (HCT-15 colon): > 10 µM
TGI (OVCAR-3 ovarian): > 10 µM
TGI (BT-549 breast): > 10 µM
TGI (SNB-19 CNS): > 10 µM
TGI (HCT-116 colon): > 10 µM
TGI (HT29 colon): > 10 µM
TGI (SW-620 colon): > 10 µM
TGI (KM12 colon): > 10 µM
TGI (CAKI-1 renal): > 10 µM
TGI (NCI/ADR-RES ovarian): > 10 µM
TGI (NCI-H460 lung): > 10 µM
TGI (COLO 205 colon): > 10 µM
TGI (NCI-H23 lung): > 10 µM
TGI (786-0 renal): > 10 µM
TGI (SK-MEL-2 melanoma): > 10 µM
TGI (CCRF-CEM leukemia): > 10 µM
TGI (M14 melanoma): > 10 µM
TGI (UACC-257 melanoma): > 10 µM
TGI (SR leukemia): > 10 µM
TGI (HL-60(TB) leukemia): > 10 µM
TGI (RPMI-8226 leukemia): > 10 µM
TGI (EKVX NSCLC): > 10 µM
TGI (MCF7 breast): > 10 µM
TGI (TK-10 renal): > 10 µM
